The supplement of paper PMC6045584
± gives the standard deviation of the averaged measurements.

What follows are test systems tested with CCN(CC)CCNC(=O)c1c(C)[nH]c(/C=C2\C(=O)Nc3ccc(F)cc32)c1C [SUNITINIB] (assay: surviving fraction relative to DMSO-only wells; higher = less growth inhibition). Conditions: 0.5 nM; exposure time: 5 days.
In short: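 Log-phase tumour cell lines were seeded at 250–500 cells per well in 384-well plates. After 24 hours they were exposed continuously for five days to inhibitors at 0.5, 1, 5, 10, 50, 100, 500 and 1000 nM. Viability was read by CellTiter-Glo luminescence after 10 minutes at room temperature, and surviving fraction is luminescence normalised to the median of DMSO-only wells. Each line was screened three times and kept only if replicate Pearson r >0.7 and median Z' >0.3.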
22RV1 PROSTATE gave a surviving fraction of 0.975 ± 0.028. 93VU HEADNECK was tested, and the surviving fraction was 0.817 ± 0.07. 143B BONE showed a surviving fraction of 0.982 ± 0.044. Test System A549 LUNG has a surviving fraction of 0.922 ± 0.021. For ASKA SYNOVIAL, the surviving fraction was 0.864 ± 0.079. BT20 BREAST gave a surviving fraction of 0.794 ± 0.14. BT549 BREAST showed a surviving fraction of 0.8 ± 0.11. CAL51 BREAST gave a surviving fraction of 0.886 ± 0.047. In the case of CAL120 BREAST, the surviving fraction is reported as 0.881 ± 0.021. Test System CASKI CERVIX has a surviving fraction of 0.757 ± 0.041. Work on CHLA90 AUTONOMIC GANGLIA yielded a surviving fraction of 0.885 ± 0.043. Work on CME SYNOVIAL yielded a surviving fraction of 0.928 ± 0.17. Work on DU4475 BREAST yielded a surviving fraction of 0.742 ± 0.17. For H23 LUNG, the surviving fraction was 0.953 ± 0.023. With HCC38 BREAST the surviving fraction was 0.845 ± 0.24. HCC70 BREAST gave a surviving fraction of 1.01 ± 0.029. Work on HCC78 LUNG yielded a surviving fraction of 0.831 ± 0.076. Work on HCC202 BREAST yielded a surviving fraction of 0.879 ± 0.093. HCC1806 BREAST showed a surviving fraction of 0.677 ± 0.078. Work on HCC1954 BREAST yielded a surviving fraction of 0.363 ± 0.098. Test System HCT15 LARGE INTESTINE has a surviving fraction of 0.882 ± 0.015. Work on HELA CERVIX yielded a surviving fraction of 0.906 ± 0.047. Test System HMLE3 BREAST has a surviving fraction of 0.887 ± 0.037. With HOS BONE the surviving fraction was 0.921 ± 0.015. With HOSMNG BONE the surviving fraction was 0.939 ± 0.1. Test System HS57T BREAST has a surviving fraction of 0.9 ± 0.077. HS578T BREAST showed a surviving fraction of 0.838 ± 0.15. In the case of HSSYII SYNOVIAL, the surviving fraction is reported as 0.771 ± 0.076. Work on HT1080 SOFT TISSUE yielded a surviving fraction of 0.9787 ± 0.0091. HU09 BONE was tested, and the surviving fraction was 0.865 ± 0.14. Work on JIMT1 BREAST yielded a surviving fraction of 0.826 ± 0.025. “JURKAT HAEMATOPOIETIC AND LYMPHOID TISSUE” gave a surviving fraction of 1.03 ± 0.023. KPD BONE was tested, and the surviving fraction was 0.898 ± 0.04. LM7 BONE showed a surviving fraction of 0.786 ± 0.068. MCF7 BREAST showed a surviving fraction of 0.786 ± 0.02. Test System MDAMB134 BREAST has a surviving fraction of 0.675 ± 0.021. For MDAMB157 BREAST, the surviving fraction was 0.794 ± 0.024. MDAMB231 BREAST was tested, and the surviving fraction was 0.955 ± 0.016. Test System MDAMB361 BREAST has a surviving fraction of 0.683 ± 0.049. MDAMB436 BREAST was tested, and the surviving fraction was 0.761 ± 0.07.

Same assay, conditions: 1 nM; exposure time: 5 days
In the case of 22RV1 PROSTATE, the surviving fraction is reported as 0.952 ± 0.021. Work on 93VU HEADNECK yielded a surviving fraction of 0.819 ± 0.059. Work on 143B BONE yielded a surviving fraction of 1.01 ± 0.026. With A549 LUNG the surviving fraction was 0.907 ± 0.029. ASKA SYNOVIAL gave a surviving fraction of 0.768 ± 0.059. With BT20 BREAST the surviving fraction was 0.732 ± 0.05. With BT549 BREAST the surviving fraction was 0.861 ± 0.048. For CADOES1 SOFT TISSUE, the surviving fraction was 0.976 ± 0.12. With CAL51 BREAST the surviving fraction was 0.895 ± 0.012. Test System CAL120 BREAST has a surviving fraction of 0.882 ± 0.036. CASKI CERVIX showed a surviving fraction of 0.731 ± 0.072. CHLA90 AUTONOMIC GANGLIA was tested, and the surviving fraction was 0.803 ± 0.062. CME SYNOVIAL showed a surviving fraction of 0.551 ± 0.019. With COLO320DM LARGE INTESTINE the surviving fraction was 0.921 ± 0.045. Work on DU4475 BREAST yielded a surviving fraction of 0.797 ± 0.12. With H23 LUNG the surviving fraction was 0.918 ± 0.013. HCC38 BREAST gave a surviving fraction of 0.893 ± 0.22. HCC78 LUNG showed a surviving fraction of 0.925 ± 0.054. With HCC202 BREAST the surviving fraction was 0.806 ± 0.23. For HCC1806 BREAST, the surviving fraction was 0.59 ± 0.41. HCC1954 BREAST showed a surviving fraction of 0.365 ± 0.15. With HCT15 LARGE INTESTINE the surviving fraction was 0.73 ± 0.028. HELA CERVIX was tested, and the surviving fraction was 0.892 ± 0.046. Test System HMLE3 BREAST has a surviving fraction of 0.715 ± 0.058. With HMT3552 BREAST the surviving fraction was 0.96. Work on HOS BONE yielded a surviving fraction of 0.937 ± 0.025. With HS57T BREAST the surviving fraction was 0.867 ± 0.027. HS578T BREAST was tested, and the surviving fraction was 0.824 ± 0.057. HSSYII SYNOVIAL showed a surviving fraction of 0.694 ± 0.029. With JIMT1 BREAST the surviving fraction was 0.81 ± 0.07. Test System “JURKAT HAEMATOPOIETIC AND LYMPHOID TISSUE” has a surviving fraction of 1 ± 0.015. With KPD BONE the surviving fraction was 0.875 ± 0.031. For LM7 BONE, the surviving fraction was 0.767 ± 0.028. MCF7 BREAST gave a surviving fraction of 0.822 ± 0.023. Test System MDAMB134 BREAST has a surviving fraction of 0.777 ± 0.087. Work on MDAMB157 BREAST yielded a surviving fraction of 0.802 ± 0.08. In the case of MDAMB231 BREAST, the surviving fraction is reported as 0.9679 ± 0.0028. For MDAMB361 BREAST, the surviving fraction was 0.717 ± 0.023. MDAMB436 BREAST was tested, and the surviving fraction was 0.78 ± 0.046.

Same assay, conditions: 5 nM; exposure time: 5 days
93VU HEADNECK was tested, and the surviving fraction was 0.85 ± 0.03. 143B BONE gave a surviving fraction of 1.01 ± 0.022. Work on A549 LUNG yielded a surviving fraction of 0.903 ± 0.013. For ASKA SYNOVIAL, the surviving fraction was 0.858 ± 0.028. With BT20 BREAST the surviving fraction was 0.757 ± 0.081. Test System BT549 BREAST has a surviving fraction of 0.854 ± 0.065. Test System CADOES1 SOFT TISSUE has a surviving fraction of 0.892 ± 0.044. CAL51 BREAST was tested, and the surviving fraction was 0.94 ± 0.011. In the case of CAL120 BREAST, the surviving fraction is reported as 0.876 ± 0.047. CASKI CERVIX gave a surviving fraction of 0.792 ± 0.052. With CHLA90 AUTONOMIC GANGLIA the surviving fraction was 0.805 ± 0.025. COLO320DM LARGE INTESTINE showed a surviving fraction of 0.957 ± 0.063. Test System DU4475 BREAST has a surviving fraction of 0.716 ± 0.14. HCC38 BREAST showed a surviving fraction of 0.966 ± 0.15. HCC70 BREAST gave a surviving fraction of 1 ± 0.096. Test System HCC78 LUNG has a surviving fraction of 0.95 ± 0.099. For HCC202 BREAST, the surviving fraction was 1.29 ± 0.32. HCC1806 BREAST showed a surviving fraction of 0.667 ± 0.45. With HCC1954 BREAST the surviving fraction was 0.38 ± 0.16. Test System HCT15 LARGE INTESTINE has a surviving fraction of 0.816 ± 0.034. Test System HMLE3 BREAST has a surviving fraction of 0.816 ± 0.019. For HOS BONE, the surviving fraction was 0.8943 ± 0.0061. With HOSMNG BONE the surviving fraction was 0.969 ± 0.13. HSSYII SYNOVIAL was tested, and the surviving fraction was 0.755 ± 0.012. HT1080 SOFT TISSUE was tested, and the surviving fraction was 0.997 ± 0.021. Test System HU09 BONE has a surviving fraction of 0.768 ± 0.076. Work on JIMT1 BREAST yielded a surviving fraction of 0.841 ± 0.041. “JURKAT HAEMATOPOIETIC AND LYMPHOID TISSUE” showed a surviving fraction of 1.009 ± 0.0064. For KPD BONE, the surviving fraction was 0.928 ± 0.042. Work on LM7 BONE yielded a surviving fraction of 0.81 ± 0.087. With MCF7 BREAST the surviving fraction was 0.8113 ± 0.0079. MDAMB134 BREAST was tested, and the surviving fraction was 0.715 ± 0.14. Work on MDAMB157 BREAST yielded a surviving fraction of 0.87 ± 0.07. For MDAMB231 BREAST, the surviving fraction was 0.979 ± 0.012. MDAMB361 BREAST gave a surviving fraction of 0.696 ± 0.058. Work on MDAMB436 BREAST yielded a surviving fraction of 0.79 ± 0.011.

Same assay, conditions: 10 nM; exposure time: 5 days
For 93VU HEADNECK, the surviving fraction was 0.823 ± 0.078. Work on 143B BONE yielded a surviving fraction of 1.02 ± 0.035. With A549 LUNG the surviving fraction was 0.89 ± 0.031. ASKA SYNOVIAL gave a surviving fraction of 0.328 ± 0.056. With BT20 BREAST the surviving fraction was 0.783 ± 0.14. Test System BT549 BREAST has a surviving fraction of 0.794 ± 0.13. CADOES1 SOFT TISSUE was tested, and the surviving fraction was 0.967 ± 0.083. For CAL51 BREAST, the surviving fraction was 0.934 ± 0.053. CASKI CERVIX gave a surviving fraction of 0.763 ± 0.064. CHLA90 AUTONOMIC GANGLIA showed a surviving fraction of 0.248 ± 0.019. CME SYNOVIAL was tested, and the surviving fraction was 0.036 ± 0.0027. Work on COLO320DM LARGE INTESTINE yielded a surviving fraction of 0.369 ± 0.055. DU4475 BREAST gave a surviving fraction of 0.771 ± 0.18. Work on H23 LUNG yielded a surviving fraction of 0.885 ± 0.045. Work on HCC70 BREAST yielded a surviving fraction of 0.904 ± 0.045. HCC78 LUNG gave a surviving fraction of 0.46 ± 0.089. With HCC202 BREAST the surviving fraction was 0.801 ± 0.19. For HCC1806 BREAST, the surviving fraction was 0.566 ± 0.43. Work on HCC1954 BREAST yielded a surviving fraction of 0.434 ± 0.2. Test System HCT15 LARGE INTESTINE has a surviving fraction of 0.449 ± 0.021. HELA CERVIX showed a surviving fraction of 0.853 ± 0.069. HMLE3 BREAST was tested, and the surviving fraction was 0.241 ± 0.053. HOS BONE was tested, and the surviving fraction was 0.884 ± 0.021. In the case of HS57T BREAST, the surviving fraction is reported as 0.919 ± 0.095. HS578T BREAST was tested, and the surviving fraction was 0.881 ± 0.049. HSSYII SYNOVIAL showed a surviving fraction of 0.216 ± 0.01. Test System HT1080 SOFT TISSUE has a surviving fraction of 0.97 ± 0.07. HU09 BONE was tested, and the surviving fraction was 0.637 ± 0.048. In the case of JIMT1 BREAST, the surviving fraction is reported as 0.848 ± 0.069. “JURKAT HAEMATOPOIETIC AND LYMPHOID TISSUE” was tested, and the surviving fraction was 1.01 ± 0.025. LM7 BONE showed a surviving fraction of 0.731 ± 0.05. Test System MCF7 BREAST has a surviving fraction of 0.706 ± 0.0095. Test System MDAMB134 BREAST has a surviving fraction of 0.675 ± 0.022. With MDAMB157 BREAST the surviving fraction was 0.869 ± 0.12. MDAMB231 BREAST gave a surviving fraction of 0.976 ± 0.033. MDAMB361 BREAST gave a surviving fraction of 0.651 ± 0.025. MDAMB436 BREAST was tested, and the surviving fraction was 0.79 ± 0.099.

Same assay, conditions: 50 nM; exposure time: 5 days
In the case of 22RV1 PROSTATE, the surviving fraction is reported as 0.937 ± 0.1. With 93VU HEADNECK the surviving fraction was 1.11 ± 0.055. 143B BONE was tested, and the surviving fraction was 1.01 ± 0.019. A549 LUNG showed a surviving fraction of 0.991 ± 0.026. For ASKA SYNOVIAL, the surviving fraction was 0.867 ± 0.043. BT20 BREAST gave a surviving fraction of 1 ± 0.16. BT549 BREAST showed a surviving fraction of 1.11 ± 0.13. CADOES1 SOFT TISSUE gave a surviving fraction of 0.885 ± 0.086. In the case of CAL120 BREAST, the surviving fraction is reported as 0.891 ± 0.023.
